The values below come from patent publication US8153592B2, “Modulating toll-like receptor activity” (Mayo Foundation for Medical Education and Research, priority 2005, dated 2012).

In test [1] the target is T1, TLR4 (Mus musculus, UniProt Q9JHF9+Q9QUK6).
T1 construct: expressed in transfected cells
T1 sequence (Q9QUK6 26-835): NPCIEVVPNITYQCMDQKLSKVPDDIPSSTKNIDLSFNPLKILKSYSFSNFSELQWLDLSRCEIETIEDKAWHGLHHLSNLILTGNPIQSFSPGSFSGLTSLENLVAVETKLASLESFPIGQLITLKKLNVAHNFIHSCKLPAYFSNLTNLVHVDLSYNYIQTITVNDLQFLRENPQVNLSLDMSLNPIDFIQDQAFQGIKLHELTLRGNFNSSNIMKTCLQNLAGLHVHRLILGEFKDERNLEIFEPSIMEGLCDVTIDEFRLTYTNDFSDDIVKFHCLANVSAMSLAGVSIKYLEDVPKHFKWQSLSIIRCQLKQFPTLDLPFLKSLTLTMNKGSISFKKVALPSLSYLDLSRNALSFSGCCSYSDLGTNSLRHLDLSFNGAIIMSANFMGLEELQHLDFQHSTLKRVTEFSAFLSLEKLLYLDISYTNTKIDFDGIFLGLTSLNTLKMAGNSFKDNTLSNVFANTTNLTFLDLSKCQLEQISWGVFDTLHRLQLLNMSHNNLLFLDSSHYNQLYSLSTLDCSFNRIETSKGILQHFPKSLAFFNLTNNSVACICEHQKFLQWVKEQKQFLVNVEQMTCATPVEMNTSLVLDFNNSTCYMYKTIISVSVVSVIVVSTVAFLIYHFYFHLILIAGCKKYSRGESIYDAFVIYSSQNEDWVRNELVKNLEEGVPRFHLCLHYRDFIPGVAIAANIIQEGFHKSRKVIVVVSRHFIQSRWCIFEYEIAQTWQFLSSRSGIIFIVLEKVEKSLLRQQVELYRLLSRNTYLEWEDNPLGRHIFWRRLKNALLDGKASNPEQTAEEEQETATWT
T1 sequence (Q9JHF9 19-160): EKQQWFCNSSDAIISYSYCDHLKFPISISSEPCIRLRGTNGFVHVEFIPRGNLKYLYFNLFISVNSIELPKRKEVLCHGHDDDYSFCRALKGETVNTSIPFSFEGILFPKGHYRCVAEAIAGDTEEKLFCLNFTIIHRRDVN
Briefly: NFκB-luciferase reporter assay in HEK/TLR4(+) cells (Example 1: TLR4 activators, extracellular matrix, elastase). The test is classed as cell-based, murine. From the text: HEK 293 cells were stabily transfected with the TLR4 and MD2 or CD14 expression plasmids, each of which encode a component of a complete, functional TLR4 receptor complex (Akira and Takeda, Nat. Rev. Immunol., 4:499-511 (2004)) using Superfect (Qiagen, Valencia, Calif.) following the manufacturer's instructions. TLR4- and MD2- or CD14-expressing HEK 293 cells were obtained by culturing the transfected cells with appropriate antibiotic selection medium and cloning by limiting dilution in the selection medium. HEK 293 cells expressing TLR4, MD2, and CD14 were generated by transfecting HEK 293 cells expressing TLR4 and MD2 with the CD14 expression plasmid and selecting clones using appropriate antibiotic containing medium. Cell lines expressing TLR4 and MD2 and/or CD14 were then maintained in DMEM supplemented with 10% fetal bovine serum and the appropriate selection antibiotics. Control cell lines were transfected with empty expression vectors and incubated in selection conditions as described above.
Activation of NFκB was measured using a NFκB-luciferase reporter assay. HEK 293 cell lines stabily expressing TLR4, MD2, and/or CD14, or control cells were seeded into 24 well tissue culture plates (2×10^5 cells/well) in 1.0 mL DMEM containing 10% fetal bovine serum and penicillin and streptomycin. The cells were allowed to adhere to the culture wells at 37° C. overnight and were then transfected with 0.1 μg pTK Renilla-luciferase and 0.1 μg NFκB-firefly-luciferase using Superfect Transfection Reagent (Qiagen). Following transfection, the cells were washed once with phosphate buffered saline and cultured for 24 hours at 37° C. in 1.0 mL DMEM containing 0.5% fetal bovine serum. After various treatments, the culture medium was aspirated, and the cells were washed once with PBS. The cells were then lysed in 150 μL Passive Lysis Buffer (Promega) with rocking at room temperature for 15 minutes. Renilla- and Firefly-luciferase were assayed simultaneously using Dual-Luciferase Reporter Assay System (Promega) and a TD-20/20 luminometer (Turner Designs, Sunnyvale, Calif.). Activation of NFκB was reported as a ratio of the firefly luciferase activity to the constitutively expressed Renilla luciferase internal control, and as the mean of triplicate wells.
A general note: Reporter assays use an easily measured gene product as a stand-in for the process of interest.

For test [2], the target named is T2, TLR4 (Mus musculus, UniProt Q9QUK6).
T2 construct: Spleens of C57BL/10SnJ mice with wild-type TLR4 (SnJ) were injected with 10 ng LPS; from tissue; host or cells: mouse spleen in vivo (C57BL/10SnJ; control C57BL/10ScN lacks the TLR4 gene)
T2 sequence (Q9QUK6 26-835): T1 sequence (Q9QUK6 26-835)
T2 sequence (Q9JHF9 19-160 partner): T1 sequence (Q9JHF9 19-160)
Briefly: CD86 expression in mouse spleen after intrasplenic injection (immunopathology). The test is classed as in vivo, mice. The settings on record: wild-type TLR4 mice, 12 hours. The method, then:
(§1) TLR4-deficient C57BL/10ScN mice, which have a deletion in chromosome 4 that encompasses the TLR4 gene, were obtained from The National Cancer Institute (Bethesda, Md.). C57BL/10SnJ mice, which have wild type TLR4 and are congenic with C57BL/10ScN were obtained from the Jackson Laboratory (Bar Harbor, Me.).
(§2) Mice were anesthetized, and the spleen was directly visualized through an incision in the lateral abdominal wall. TLR4 activators dissolved in 50 μL of PBS were injected into the spleen as follows. The solutions were injected as a 27 gauge needle was withdrawn along the long axis of the organ. Twelve hours after injection, the spleens were harvested and frozen in liquid nitrogen for analysis of CD86 expression. Studies were performed at twelve hours because preliminary experiments indicated CD86 expression became clearly detectable at this time. Longitudinal tissue sections were prepared from the center of the spleen and stained as described elsewhere (Dempsey et al., Glycobiology, 10:467-475 (2000)) with the following modifications. Secondary detection antibodies were diluted in M.O.M. diluent (Vector Laboratories, Burlingame, Calif.) and preabsorbed with mouse serum (Jackson ImmunoResearch Laboratories, West Grove, Pa.). Fluorescent images were converted to grayscale using SPOT software (Diagnostic Instruments, Sterling Heights, Mich.).

In test [3] the test system is TLR4. The description is as above. The test is classed as in vivo, mice. The settings on record: mice which lack TLR4 function (ScN), injected into spleen. As to the method:
as §1, §2

The target in test [4] is T3, CXCR4 (Homo sapiens, UniProt P61073).
T3 construct: endogenous in cells; host or cells: Jurkat T cells
Description: CXCR4 cell surface level on Jurkat T cells (FACS, internalization of CXCR4). The test is classed as cell-based. The settings on record: 37° C. for 30 minutes. As to the method:
To determine if the purified, recombinant [Hisx6]SDF-1 polypeptide activates CXCR4, Jurkat T cells were stimulated (37° C. for 30 minutes) with buffer alone or with buffer containing a synthetic SDF-1 polypeptide or the purified recombinant [Hisx6]SDF-1 polypeptide. Control cells were stimulated with bovine albumin. The treated cells were stained with fluorochrome-labeled anti-CXCR4 antibodies, and the amount of CXCR4 on the cell surface was measured by the intensity of CXCR4 antibody staining using FACS.

The target of test [5] is T1, TLR4. Briefly: NFκB-luciferase reporter assay in HEK/TLR4(+) cells with perturbed CXCR4 (Examples 2 and 3). Format: cell-based, murine. As to the method: HEK 293 cells (human embryonic kidney cells) from American Type Culture Collection (ATCC) were cultured in DMEM containing 10% fetal bovine serum, penicillin, and streptomycin. […] TLR4/MD2/CD14 expressing HEK 293 cells were selected using appropriate antibiotic selection medium and were then cloned by limiting dilution in the same medium. Control cells were prepared using empty expression vectors and identical transfection and selection procedures.
HEK 293 cell lines stably expressing TLR4/MD2/CD14 were seeded into 24-well tissue culture plates (2×10^5 cells/well) and allowed to adhere at 37° C. overnight. The adherent cells were transfected with 0.1 μg pTK Renilla-luciferase and 0.1 μg NFκB-firefly-luciferase using Superfect Transfection Reagent (Qiagen) and then cultured for 24 hours at 37° C. in 1 mL DMEM containing 0.5% fetal bovine serum. The cells were stimulated as indicated, washed with phosphate buffered saline, and lysed with 150 μL Passive Lysis Buffer (Promega). The amount of Renilla- and Firefly-luciferase in the cell lysates was assayed simultaneously using Dual-Luciferase Reporter Assay System (Promega) and a TD-20/20 lumenometer (Turner Designs, Sunnyvale, Calif.). Activation of NFκB-firefly luciferase reporter activity is given as the ratio of firefly luciferase to the internal control Renilla luciferase activity, determined and expressed as the mean of triplicate wells.

The target in test [6] is T4, TLR4/MD2 complex (Mus musculus, UniProt Q9JHF9+Q9QUK6).
T4 construct: expressed in transfected cells; host or cells: HEK 293 (HEK/TLR4(+))
T4 sequence (Q9QUK6 26-835): T1 sequence (Q9QUK6 26-835)
T4 sequence (Q9JHF9 19-160): T1 sequence (Q9JHF9 19-160)
Briefly: Cell surface expression of TLR4/MD2 on HEK/TLR4(+) cells (flow cytometry). The test is classed as cell-based, murine. The settings on record: HEK/TLR4 cells treated with SDF-1. As to the method: FIG. 2. TLR4 signaling is conditioned by extracellular matrix. The impact of extracellular matrix on TLR4 activation was tested in cells cultured in wells coated with extracellular matrix. (A) and (B) Inhibition of NFκB activation by extracellular matrix in HEK/TLR4(+) cells. HEK/TLR4(+) cells were cultured in wells coated with extracellular matrix (ECM) or fibronectin (FN) and transfected with NFκB- and control-luciferase reporter genes. TLR4 signaling in response to increasing amounts of heparan sulfate (A) or LPS (B) was measured six hours after stimulation. […] The cells were tested for cell surface expression of the TLR4/MD2 complex by flow cytometry using monoclonal antibodies specific for that complex. […] (D) and (E) Inhibition of p38 MAP Kinase activation by extracellular matrix in RAW 264 cells. (D) RAW 264.7 murine macrophages were cultured in wells coated with extracellular matrix (ECM) or fibronectin (FN). The cells were stimulated with heparan sulfate (left panel) or LPS (right panel) for the indicated time (minutes), after which the cells were lysed and activated p38 MAPK (phospho p38) was measured by immunoblotting. […] Similar results were obtained for cells stimulated with LPS. The data shown are representative of 3 separate experiments and indicate that activation of TLR4 signaling is inhibited by extracellular matrix.
On the technique in general: In flow cytometry, cells or beads pass a laser one at a time.

T3 sequence (P61073 whole entry): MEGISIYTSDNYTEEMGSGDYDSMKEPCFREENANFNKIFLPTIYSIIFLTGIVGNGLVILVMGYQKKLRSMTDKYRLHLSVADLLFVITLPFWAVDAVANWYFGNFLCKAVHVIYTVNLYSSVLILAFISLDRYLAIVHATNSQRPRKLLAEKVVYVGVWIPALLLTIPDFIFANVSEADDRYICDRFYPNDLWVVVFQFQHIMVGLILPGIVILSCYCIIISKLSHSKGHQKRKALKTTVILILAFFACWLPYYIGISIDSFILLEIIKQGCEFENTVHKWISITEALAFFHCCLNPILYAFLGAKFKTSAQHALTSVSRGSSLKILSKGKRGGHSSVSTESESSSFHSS

In the case of elastase, the “TLR4 response to elastase” value in test [1] (cells grown on fibronectin) is on record as “did not respond to elastase”. Besides, the “Increase of TLR4 response to heparan sulfate versus no elastase” value in test [1] (cells on extracellular matrix, elastase 0.1 U/mL, 1 μg/mL heparan sulfate, 4 hours) is given as “about 3 fold”. The “TLR4 response without added agonist” value in test [1] (cells on extracellular matrix, elastase 0.3 U/mL, 4 hours) is “stimulated full TLR4 responses without addition of agonist”. The “Expression of CD86 in splenocytes” value in test [2] (0.01 U elastase into spleen) is “only modestly increased expression of CD86”; in test [2] (0.1 U elastase alone), “profoundly increased expression of CD86”; in test [2] (small amount (0.01 U) of elastase along with 1 ng LPS) it was “profoundly increased expression of CD86”. In addition, in test [3], the “Increase in CD86 expression” value is on record as “not observed”.

“[Hisx6]SDF-1: recombinant, histidine-tagged murine SDF-1 polypeptide produced in E. coli”: the “Amount of CXCR4 on the cell surface” value in test [4] is “stimulate a decrease in CXCR4 on cell surfaces”.

In the case of pertussis toxin, the “TLR4 activation by LPS (NFκB-luciferase)” value in test [5] (HEK/TLR4(+) cells treated with 0.1 μg/mL pertussis toxin) was “diminished TLR4 activation by LPS”.

On to heparan sulfate, for which the “Activation of HEK/TLR4(+) cells (NFκB-luciferase)” value in test [1] (10 μg/mL heparan sulfate or 10 ng/mL LPS, 6 hours) is “responded both to LPS and heparan sulfate”. Also, in test [1] (cells grown on fibronectin, 1 μg/mL HS, 4 hours), the “TLR4 response to heparan sulfate” value is “responded fully to HS”.

Turning to “SDF-1: the agonist for CXCR4; natural ligand polypeptide”, the “TLR4 activation by LPS (NFκB-luciferase)” value in test [5] (HEK/TLR4(+) cells stimulated simultaneously with LPS and 50 nM SDF-1) was “indifferent to the presence of LPS at any concentration tested”. Moreover, the “NFκB-luciferase reporter activation by the agent itself” value in test [5] (HEK/TLR4(+) cells, no LPS) is “slight activation of the luciferase reporter”. Further, in test [6], the “Expression of TLR4” value is “did not alter expression of TLR4”.
